Patent US20140349962A1, “RAPID TWO-STEP SYNTHESIS OF ANTI-COAGULANTS” (Massachusetts Institute of Technology, priority 2013, published 2014)

Key:
[1] = target: anti-thrombin III (ATIII) (Homo sapiens, UniProt P01008); conditions: compared to in vitro modified commercial heparin
Method: PAP^35S-radiolabeled N-deacetylate N-sulfate derivatives of non-sulfated N-acetyl heparosan (HS) polysaccharides (10, 000 counts) was reacted with […] ATIII. Complex formation was analyzed by non-denaturing gel electrophoresis (4% polyacrylamide). The mobility of radiolabeled N-deacetylate N-sulfate derivatives of non-sulfated N-acetyl heparosan (HS) polysaccharides was compared with and without ATIII.
Heparin-ATIII binding buffer contained 12% glycerol, 20 mM Tris-HCl (pH 7.9), 100 mM KCl, 1 mM EDTA, and 1 mM DTT. For a typical 20 μl binding reaction, radiolabeled polysaccharide (10,000 cpm) was mixed with AT-III (1 μg) in the binding buffer. The reaction mixture was incubated at room temperature (23° C.) for 20 min and was then applied to a 4.5% native polyacrylamide gel (with 0.1% of bis-acrylamide). The gel buffer was 10 mM Tris (pH 7.4) and 1 mM EDTA, and the electrophoresis buffer was 40 mM Tris (pH 8.0), 40 mM acetic acid, 1 mM EDTA. The gel was run at 6 volts/cm for 1-2 hours with an SE 250 Mighty Small II gel apparatus (Hoefer Scientific Instruments, San Francisco). After electrophoresis, the gel was transferred to 3 MM paper and dried under vacuum. The dried gel was autoradiographed by a PhosphorImager 445S1 (Molecular Dynamics, Sunnyvale, Calif.). The image was analyzed with NIH Image 1.60 and band intensities were evaluated.

Human factor Xa = conditions: approximately; heparin-dependent factor Xa inhibition, commercial heparin as standard
Method: Human factor Xa (10.4 mg/ml 50% glycerol, 820 units/mg) (Hematologic Technologies, Essex Junction, Vt.) was used for assay. Factor Xa was diluted 1:200 with PBS containing 1 mg of bovine serum albumin (4 units/ml and 15 units/ml, respectively). ATIII (2.5 mg/ml) (GlycoMed, CA) was diluted 1:200 to give a 2×10^7 M stock solution. The chromogenic substrate S-2765 was from Chromogenix (West Chester, Ohio) and the stock solution of 1 mM with 1 mg/ml Polybrene in water was prepared. Heparin (174 international units/mg, Sigma) was used as a standard. The N-deacetylated N-sulfated polysaccharide product was used for factor Xa studies (10 ng). The protocol involved adding 25 μl of ATIII (2×10 7 M) to 25 μl of a serial dilution of heparin standards or N-deacetylated N-sulfated polysaccharide in Tris-EDTA (50 mM Tris, 7.5 mM EDTA, and 175 mM NaCl (pH 8.4)) buffer. The reaction was incubated at 37° C. for 75 seconds. Factor Xa (25 μl, 4 units/ml) was added. After incubating at 37° C. for 195 seconds, 25 μl of S-2765 was added. The absorbance at 405 nm was read every minute for 10 minutes using a Beckman UV spectrometer.

PF4 = PF4 (Homo sapiens, UniProt P02776); conditions: expected because compound is free of 2-O sulfated iduronic acid residues
Chain of PF4 (P02776 32-101): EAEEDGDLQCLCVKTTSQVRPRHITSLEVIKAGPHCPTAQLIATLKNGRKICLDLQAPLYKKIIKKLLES

Chain of anti-thrombin III (ATIII) (P01008 33-464, species assumed): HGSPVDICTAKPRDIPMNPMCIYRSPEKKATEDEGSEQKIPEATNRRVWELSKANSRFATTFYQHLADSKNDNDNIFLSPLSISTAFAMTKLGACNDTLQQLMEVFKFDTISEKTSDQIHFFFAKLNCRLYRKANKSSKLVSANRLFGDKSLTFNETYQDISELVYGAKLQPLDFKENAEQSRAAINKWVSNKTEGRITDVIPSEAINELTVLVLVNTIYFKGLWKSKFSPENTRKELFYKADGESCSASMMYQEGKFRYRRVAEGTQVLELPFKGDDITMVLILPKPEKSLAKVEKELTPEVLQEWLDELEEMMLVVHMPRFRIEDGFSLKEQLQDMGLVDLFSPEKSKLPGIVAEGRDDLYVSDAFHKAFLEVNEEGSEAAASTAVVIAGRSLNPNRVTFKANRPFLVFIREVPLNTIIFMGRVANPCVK

**Q.** For “N-deacetylate N-sulfate derivatives of non-sulfated N-acetyl heparosan (HS) polysaccharide [Formula I]”, which “percentage of compound bound to ATIII compared to commercial heparin” value [1] is on record?
**A.** greater percentage

**Q.** And the “specific activity relative to commercial heparin” value (Human factor Xa)?
**A.** 4-5 times

**Q.** What about the “ability to bind to PF4” value (PF4) of the same substance?
**A.** reduced ability to bind to PF4
